Measured values taken from ChEMBL document CHEMBL1201862, “PubChem BioAssay data set” (2004).
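Method: 48-hour compound exposure of cells in 96-well plates, five concentrations, linear interpolation of endpoints. GI50 = concentration required for 50% inhibition of growth.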 Calls of active or inactive are those of the source. Rule as the data show it: active = GI50 up to about 1.1 µM and inactive = higher.

Columns and labels:
Assay in all cases: NCI-60 cell line screen, 48 h
COLO 205 = system: COLO 205
SR = system: SR
CAKI-1 = system: CAKI-1
Malme-3M = system: Malme-3M
NCI-H23 = system: NCI-H23
M19-MEL = system: M19-MEL
SW-620 = system: SW-620
M14 = system: M14
OVCAR-4 = system: OVCAR-4
786-0 = system: 786-0
U-251 = system: U-251
UACC-62 = system: UACC-62
NCI-H522 = system: NCI-H522
HOP-62 = system: HOP-62
OVCAR-8 = system: OVCAR-8
KM-20L2 = system: KM-20L2
HL-60 = system: HL-60
RPMI-8226 = system: RPMI-8226
SN12C = system: SN12C
UO-31 = system: UO-31
MOLT-4 = system: MOLT-4
SK-MEL-5 = system: SK-MEL-5
OVCAR-3 = system: OVCAR-3
HOP-92 = system: HOP-92
DMS-114 = system: DMS-114
K562 = system: K562
SNB-75 = system: SNB-75
LXFL 529 = system: LXFL 529
SF-268 = system: SF-268
NCI-H226 = system: NCI-H226
HCT-15 = system: HCT-15
HCT-116 = system: HCT-116
NCI-H460 = system: NCI-H460
TK-10 = system: TK-10
EKVX = system: EKVX
SF-295 = system: SF-295
XF498 = system: XF498
SNB-19 = system: SNB-19
A549 = system: A549
SF-539 = system: SF-539
KM12 = system: KM12
DMS-273 = system: DMS-273
CCRF-CEM = system: CCRF-CEM
HOP-18 = system: HOP-18
SK-MEL-2 = system: SK-MEL-2
HT-29 = system: HT-29
SK-MEL-28 = system: SK-MEL-28
HCC 2998 = system: HCC 2998
ACHN = system: ACHN
UACC-257 = system: UACC-257
RXF 393 = system: RXF 393
DLD-1 = system: DLD-1
LOX IMVI = system: LOX IMVI
IGROV-1 = system: IGROV-1
SK-OV-3 = system: SK-OV-3

In the case of CCCCCCC1CCC2CCCC(C)N12 (configuration not stated), the GI50 (COLO 205) is reported as 16 µM (inactive), the GI50 (SR) is reported as 23.2 µM (inactive) and the GI50 (CAKI-1) is reported as > 100 µM (inactive). The GI50 (Malme-3M) was > 10 µM (inactive), the GI50 (NCI-H23) was 34.4 µM (inactive) and the GI50 (M19-MEL) was 27.7 µM (inactive). For the same compound, the GI50 (SW-620) was 14.8 µM (inactive), the GI50 (M14) was 25.3 µM (inactive) and the GI50 (OVCAR-4) was 46.2 µM (inactive). For the same compound, the GI50 (786-0) was 30.1 µM (inactive), the GI50 (U-251) was 10.5 µM (inactive) and the GI50 (UACC-62) was > 100 µM (inactive). For the same compound, the GI50 (NCI-H522) was 22.9 µM (inactive), the GI50 (HOP-62) was > 100 µM (inactive) and the GI50 (OVCAR-8) was 45.6 µM (inactive). The GI50 (KM-20L2) was 25.2 µM (inactive), the GI50 (HL-60) was 17.8 µM (inactive) and the GI50 (RPMI-8226) was 22.9 µM (inactive). For the same compound, the GI50 (SN12C) was 95.9 µM (inactive), the GI50 (UO-31) was 19.7 µM (inactive) and the GI50 (MOLT-4) was 18.3 µM (inactive). The GI50 (SK-MEL-5) was 49.8 µM (inactive), the GI50 (OVCAR-3) was > 100 µM (inactive) and the GI50 (HOP-92) was 25.8 µM (inactive). The GI50 (DMS-114) was 37 µM (inactive), the GI50 (K562) was 13.8 µM (inactive) and the GI50 (SNB-75) was 39.8 µM (inactive). The GI50 (LXFL 529) was > 10 µM (inactive), the GI50 (SF-268) was 43.4 µM (inactive) and the GI50 (NCI-H226) was > 100 µM (inactive). The GI50 (HCT-15) was 32.8 µM, the GI50 (HCT-116) was 51.1 µM (inactive) and the GI50 (NCI-H460) was 23.7 µM (inactive). For the same compound, the GI50 (TK-10) was 39.2 µM (inactive), the GI50 (EKVX) was > 100 µM (inactive) and the GI50 (SF-295) was 43.4 µM (inactive). The GI50 (XF498) was 19.4 µM (inactive), the GI50 (SNB-19) was > 100 µM (inactive) and the GI50 (A549) was 77.1 µM (inactive). For the same compound, the GI50 (SF-539) was 76 µM (inactive), the GI50 (KM12) was 30.6 µM (inactive) and the GI50 (DMS-273) was 27.4 µM (inactive). For the same compound, the GI50 (CCRF-CEM) was 19 µM (inactive), the GI50 (HOP-18) was 29.2 µM (inactive) and the GI50 (SK-MEL-2) was 28.2 µM (inactive). For the same compound, the GI50 (HT-29) was > 10 µM (inactive), the GI50 (SK-MEL-28) was 53.6 µM (inactive) and the GI50 (HCC 2998) was 22.6 µM (inactive). For the same compound, the GI50 (ACHN) was 68.1 µM (inactive) and the GI50 (UACC-257) was 37.9 µM (inactive).

For NS(=O)(=O)c1cc2c(cc1Cl)NC(C(=O)NNC(=O)c1ccncc1)=NS2(=O)=O, the GI50 (COLO 205) was > 100 µM (inactive), the GI50 (SR) was > 100 µM (inactive) and the GI50 (CAKI-1) was > 100 µM (inactive). The GI50 (Malme-3M) was > 100 µM (inactive), the GI50 (NCI-H23) was > 100 µM (inactive) and the GI50 (M19-MEL) was > 100 µM (inactive). The GI50 (SW-620) was > 100 µM (inactive), the GI50 (M14) was > 100 µM (inactive) and the GI50 (OVCAR-4) was > 100 µM (inactive). For the same compound, the GI50 (RXF 393) was > 100 µM (inactive), the GI50 (786-0) was > 100 µM (inactive) and the GI50 (UACC-62) was > 100 µM (inactive). For the same compound, the GI50 (NCI-H522) was > 100 µM (inactive), the GI50 (HOP-62) was > 100 µM (inactive) and the GI50 (OVCAR-8) was > 100 µM (inactive). For the same compound, the GI50 (KM-20L2) was > 100 µM (inactive), the GI50 (HL-60) was > 100 µM (inactive) and the GI50 (DLD-1) was > 100 µM (inactive). For the same compound, the GI50 (SN12C) was > 100 µM (inactive), the GI50 (UO-31) was > 100 µM (inactive) and the GI50 (MOLT-4) was > 100 µM (inactive). The GI50 (SK-MEL-5) was > 100 µM (inactive), the GI50 (OVCAR-3) was > 100 µM (inactive) and the GI50 (HOP-92) was > 100 µM (inactive). For the same compound, the GI50 (DMS-114) was > 100 µM (inactive), the GI50 (SNB-75) was > 100 µM (inactive) and the GI50 (LXFL 529) was > 100 µM (inactive). For the same compound, the GI50 (SF-268) was > 100 µM (inactive), the GI50 (NCI-H226) was > 100 µM (inactive) and the GI50 (LOX IMVI) was > 100 µM (inactive). For the same compound, the GI50 (HCT-15) was over 100 µM, the GI50 (IGROV-1) was > 100 µM (inactive) and the GI50 (HCT-116) was > 100 µM (inactive). For the same compound, the GI50 (NCI-H460) was > 100 µM (inactive), the GI50 (SK-OV-3) was > 100 µM (inactive) and the GI50 (TK-10) was > 100 µM (inactive). For the same compound, the GI50 (EKVX) was > 100 µM (inactive), the GI50 (SF-295) was > 100 µM (inactive) and the GI50 (XF498) was > 100 µM (inactive). For the same compound, the GI50 (SNB-19) was > 100 µM (inactive), the GI50 (A549) was > 100 µM (inactive) and the GI50 (SF-539) was > 100 µM (inactive). The GI50 (KM12) was > 100 µM (inactive), the GI50 (DMS-273) was > 100 µM (inactive) and the GI50 (CCRF-CEM) was > 100 µM (inactive). For the same compound, the GI50 (HOP-18) was > 100 µM (inactive), the GI50 (SK-MEL-2) was > 100 µM (inactive) and the GI50 (HT-29) was > 100 µM (inactive). The GI50 (SK-MEL-28) was > 100 µM (inactive), the GI50 (HCC 2998) was > 100 µM (inactive) and the GI50 (ACHN) was > 100 µM (inactive). The GI50 (UACC-257) was > 100 µM (inactive).
